Laboratory results from patent publication US7972800B2, “Screening method for binding property or signal transduction alterations” (Takeda Pharmaceutical Company Limited, priority 2003, dated 2011).

Legend:
[1] = biological target: TGR7 (Homo sapiens, UniProt Q8TDS7); details: Cytosensor, TGR7-expressed cells (FIG. 8)
Experimental: (§1) Activation of the intracellular signal transduction system by ligands using a Cytosensor was determined in terms of the pH changes by metabolism of cells as an indicator.
(§2) The procedures were as follows. On the previous day, the human GPR39-expressing CHO cell line was cultured in a culture flask to reach a confluent state. After washing with PBS (Invitrogen Corp.), the cells were scraped off using trypsin (Invitrogen Corp.) and centrifuged for recovery. The cells were then suspended in medium and the suspension was adjusted to 3×10^5 cells/ml. The capsule of Cytosensor capsule kit (Molecular Device) was placed on a 12-well plate (Costar) and 1 ml of the cell suspension was charged therein. After covering with the lid, the cells were incubated at 37° C. in an incubator until next day. On the day when the assay was conducted, Cytosensor was activated as instructed by the protocol. Then, RPMI1640 medium (pH 7.4) (Invitrogen Corp.) for Cytosensor was prepared and equilibrated. The spacer was then placed in the capsule where the cells prepared on the previous day were seeded, and the capsule was set on Cytosensor. After equilibration with the medium, a sample was added to the cells by switching the flow path and pH changes were determined.

[2] = test system: mock cells where GPR39 was not expressed; details: Cytosensor, mock cells where GPR39 was not expressed (FIG. 8)
Experimental: as §1, §2

[3] = biological target: T1, human GPR39 (Homo sapiens, UniProt O43194); details: Cytosensor, CHO/hGPR39 (FIG. 8)
T1 sequence (O43194 1-453): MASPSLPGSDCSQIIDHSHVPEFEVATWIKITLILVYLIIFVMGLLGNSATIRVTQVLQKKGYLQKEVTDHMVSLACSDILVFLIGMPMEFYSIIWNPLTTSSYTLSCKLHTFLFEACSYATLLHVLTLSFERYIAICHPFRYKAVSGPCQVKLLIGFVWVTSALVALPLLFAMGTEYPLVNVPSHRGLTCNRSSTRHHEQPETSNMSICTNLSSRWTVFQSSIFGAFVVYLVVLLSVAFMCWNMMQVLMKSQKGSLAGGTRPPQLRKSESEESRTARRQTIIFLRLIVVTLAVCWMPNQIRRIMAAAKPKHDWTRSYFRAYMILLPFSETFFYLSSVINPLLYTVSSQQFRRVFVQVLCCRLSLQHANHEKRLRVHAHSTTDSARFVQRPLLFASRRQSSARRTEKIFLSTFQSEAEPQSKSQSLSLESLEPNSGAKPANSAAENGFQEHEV
Experimental: as §1, §2

[4] = test system: HT-1197; details: FLIPR
Experimental: (§3) On the day when the assay was conducted, various test samples were added to the cells and the changes of intracellular calcium levels in this case were determined by FLIPR (Molecular Device). In order to determine the changes in intracellular calcium levels on FLIPR, the cells were pre-treated by the following procedures. First, for the purpose of adding a fluorescent dye Fluo-3AM (DOJIN) to the cells or washing the cells immediately before the FLIPR assay, an assay buffer was prepared. A solution was prepared by adding 20 ml of 1M HEPES (pH 7.4) (DOJIN) to 1000 ml of HBSS (Invitrogen Corp.) (hereinafter HBSS/HEPES solution), to which solution was added 10 ml of a solution mixture obtained by dissolving 710 mg of Probenecid (Sigma) in 5 ml of 1N NaOH and further adding 5 ml of HBSS/HEPES solution thereto. The resulting solution was used as the assay buffer. Next, 50 μg of Fluo-3AM was dissolved in 21 μl of DMSO (DOJIN) and an equal volume of 20% Pluronic acid (Molecular Probes) was added to and mixed with the solution. The mixture was then added to 10.6 ml of the assay buffer supplemented with 105 μl of fetal calf serum to prepare a fluorescent dye solution. The medium for the CHO cells where human GPR39 was stably expressed was removed. […] Following the pre-treatment above, the changes in intracellular calcium levels after the addition of each test sample were determined by FLIPR. […]

[5] = test system: UM-UC-3; details: FLIPR
Experimental: as §3

Chain of TGR7 (Q8TDS7 whole entry): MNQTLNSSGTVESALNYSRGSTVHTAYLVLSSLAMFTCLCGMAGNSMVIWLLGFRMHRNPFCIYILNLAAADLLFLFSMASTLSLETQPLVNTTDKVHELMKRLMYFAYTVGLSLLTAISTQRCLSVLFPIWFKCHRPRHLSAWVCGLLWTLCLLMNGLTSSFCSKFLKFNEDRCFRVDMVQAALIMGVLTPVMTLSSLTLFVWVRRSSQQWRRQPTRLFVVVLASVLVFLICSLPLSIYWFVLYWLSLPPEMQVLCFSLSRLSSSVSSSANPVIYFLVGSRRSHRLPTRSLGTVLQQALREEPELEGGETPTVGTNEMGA

[Cl][Ni][Cl] [nickel chloride]
cell response (pH change) in other receptor TGR7 cells [1]: any response was not detected
cell response (pH change) in mock cells [2]: any response was not detected
cell response (pH change, acidification rate) in GPR39-expressed cells [3]: a cell response specific to nickel was detected
reaction (change in intracellular calcium levels) in HT-1197 [4]: a reaction with nickel was detected
reaction (change in intracellular calcium levels) in UM-UC-3 [5]: a reaction with nickel was detected
